A short description of series [1]: Determination of particle diameter (ultracentrifugal automatic particle size distribution analyzer, silicone oil dispersion). It is filed as physicochemical. On the procedure:
Determination of Particle Diameter
Twenty (20) mg each of the pre-pulverized present compound and the pulverizates of the compound as obtained in Examples 1 and 2 and Comparative Example 1 was taken in a test tube and 5 ml of silicone oil (product of Shin-Etsu Chemical Co.) was added. The mixture was stirred with a bench-top mixer for 20 seconds and further dispersed with a bench-top supersonic washer (UT-51N, product of Sharp Corporation) for 5 minutes. Then, the particle size distribution was determined with an ultracentrifugal automatic particle size distribution analyzer (CAPA-700, manufactured by Horiba, Ltd.).

The nature of series [2]: Confirmation of crystalline state by powder X-ray diffraction. It is filed as physicochemical. The settings on record: after a pulverization time of 60 minutes, mill of the closed-circuit pulverizing type. The procedure: Confirmation of Crystalline State
Using each of the unpulverized present compound and the pulverizates of the same compound as obtained in Examples 1 and 2 and Comparative Example 1, the powder X-ray diffraction pattern was recorded with a powder x-ray diffraction analyzer (RAD-2B, manufactured by Rigaku Denki).
It will be apparent from the drawings that the pulverizates as micronized with a mill of the open-circuit pulverizing type retained the crystalline form, showing X-ray diffraction peaks.

Series [3] can be described thus: Administration experiment (in vivo): oral capsule, plasma concentration of the metabolite by HPLC. The settings on record: 4 male crab-eating monkeys, capsule of Example 1 pulverizate versus capsule of unpulverized compound. The text has this: Administration Experiment (in vivo)
A capsule prepared using the unpulverized present compound and a capsule prepared using the pulverizate obtained in Example 1 (the present pulverizate) according to the physical blending formula shown in Table 2 were respectively administered orally to 4 crab-eating monkeys (male, aged 6˜9 years). The blood was serially sampled and the plasma concentration of the metabolite of the present compound [(E)-4-[2-[2-[N-(4-methoxybenzenesulfonyl)amino]phenyl]-ethenyl]pyridine 1-oxide] was determined by HPLC.
The abscissa represents time (hrs) and the ordinate represents the plasma concentration (μg/ml) of the metabolite.

The mark [4] stands for this setting: before pulverization (bulk powder).
[5] abbreviates: after 120 min. pulverization, planetary ball-mill.

Consider `COc1ccc(S(=O)(=O)N(C(C)=O)c2ccccc2/C=C/c2cc[n+]([O-])cc2)cc1` [Example 1, (E)-4-[2-[2-[N-acetyl-N-(4-methoxybenzenesulfonyl)amino]phenyl]ethenyl]-pyridine 1-oxide], for which, in series [1] (after pulverization), the “Fraction of particles ≧30 μm” value was determined as 0% and the Mean particle diameter is given as 9.7 ± 4.3 μm. Besides, in series [1] (setting [4]), the “Fraction of particles ≧30 μm” value is 35.5%, the “Fraction of particles ≧50 μm” value is listed as 20.4% and the Mean particle diameter came out at 25.9 ± 43.3 μm.

Consider `COc1ccc(S(=O)(=O)N(C(C)=O)c2ccccc2/C=C/c2cc[n+]([O-])cc2)cc1` [Comparative Example, (E)-4-[2-[2-[N-acetyl-N-(4-methoxybenzenesulfonyl)amino]phenyl]ethenyl]-pyridine 1-oxide], for which the “Crystalline state (X-ray diffraction peaks)” value in series [2] is “changed to a non-crystalline compound showing no X-ray diffraction peaks”. Also, the Mean particle diameter in series [1] (after 30 min. pulverization, planetary ball-mill) worked out at 15.1 μm; in series [1] (after 60 min. pulverization, planetary ball-mill), 12.4 μm; in series [1] (setting [5]), 10.7 ± 4.5 μm; in series [1] (setting [4]) it was 25.9 ± 43.3 μm. In addition, the “Fraction of particles ≧30 μm” value in series [1] (setting [5]) is listed as 0%; in series [1] (setting [4]), 35.5%. Moreover, the “Fraction of particles ≧50 μm” value in series [1] (setting [4]) turned out to be 20.4%.

As to `COc1ccc(S(=O)(=O)N(C(C)=O)c2ccccc2/C=C/c2cc[n+]([O-])cc2)cc1` [the present compound, (E)-4-[2-[2-[N-acetyl-N-(4-methoxybenzenesulfonyl)amino]phenyl]ethenyl]-pyridine 1-oxide], the “Plasma concentration (metabolite determined by HPLC)” value in series [3] was “significantly increased”.

As for `COc1ccc(S(=O)(=O)N(C(C)=O)c2ccccc2/C=C/c2cc[n+]([O-])cc2)cc1` [Example 2, (E)-4-[2-[2-[N-acetyl-N-(4-methoxybenzenesulfonyl)amino]phenyl]ethenyl]-pyridine 1-oxide], in series [1] (after pulverization), the “Fraction of particles ≧30 μm” value is reported as 6.8%, the “Fraction of particles ≧50 μm” value came out at 0% and the Mean particle diameter amounted to 15.2 ± 6.8 μm. Moreover, in series [1] (setting [4]), the “Fraction of particles ≧30 μm” value came out at 26.6%, the “Fraction of particles ≧50 μm” value turned out to be 12.8% and the Mean particle diameter came to 24.2 ± 31.2 μm.
